In one data set the target is T1, OCT3 (Homo sapiens, UniProt O75751).
T1 sequence (O75751 1-556): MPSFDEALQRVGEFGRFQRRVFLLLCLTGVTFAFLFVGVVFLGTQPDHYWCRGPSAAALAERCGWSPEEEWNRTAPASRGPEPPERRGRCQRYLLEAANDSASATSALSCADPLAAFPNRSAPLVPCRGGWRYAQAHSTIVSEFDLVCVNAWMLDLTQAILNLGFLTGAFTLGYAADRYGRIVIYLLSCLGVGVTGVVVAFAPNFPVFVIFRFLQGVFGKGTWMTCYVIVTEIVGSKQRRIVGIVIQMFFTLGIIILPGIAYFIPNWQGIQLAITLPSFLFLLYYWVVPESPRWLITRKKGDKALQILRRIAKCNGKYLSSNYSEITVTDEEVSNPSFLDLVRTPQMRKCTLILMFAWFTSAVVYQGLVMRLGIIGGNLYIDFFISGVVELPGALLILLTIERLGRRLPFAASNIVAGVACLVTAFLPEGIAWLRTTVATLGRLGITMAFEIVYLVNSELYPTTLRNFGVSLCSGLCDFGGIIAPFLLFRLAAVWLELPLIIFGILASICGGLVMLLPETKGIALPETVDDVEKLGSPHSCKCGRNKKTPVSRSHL
Conditions: for OCT3; cited from earlier work.

For a further data set, the system named is α2-adrenoreceptors. Conditions: cited from earlier work.
The conditions of data set [1]: after injection in rabbits; cited from earlier work.
In another data set the test system is α1-adrenoreceptors. Conditions: cited from earlier work.
Data set [2] is described as follows: Effect on weight, corticosterone-induced depression. It counts as in vivo, mice. Conditions: weight measured daily; I-1 0.1 mg/kg/day, fluoxetine 15 mg/kg/day or both, i.p. The protocol:
Corticosterone-induced depression. […] The experimental scheme is represented on FIG. 1A. Effect on weight. The weight of tested mice was measured daily in the morning (FIG. 2D).

Data set [3] has as its system corticosterone-induced depression model. In words: Elevated O-maze test, corticosterone-induced depression. It counts as in vivo, mice. Conditions: after 21 days; i.p. daily: I-1 0.1 mg/kg/day, fluoxetine 15 mg/kg/day or both. The protocol:
Corticosterone-induced depression. […] The experimental scheme is represented on FIG. 1A. Elevated O-maze test. The elevated O-maze consisted of an annular runway positioned 40 cm above the floor and divided into two opposing 90° closed sectors and two 90° open sectors. The mice were individually placed in the closed sector and their behavior recorded over a 5-min period. The time spent in each sector and the number of sector entries (a sector entry was defined as all four of the paws being placed in a sector) were determined by video tracking (Viewpoint, Lyon, France) (FIGS. 1D and 1E).

Data set [4] deals with autophagy and proteasome pathways in the brain. In words: Toxicity: cell death pathways in the brain, Western blots. Conditions: quantitative Western blot, prefrontal cortex and hippocampus, corticosterone model. The protocol: (§1) Corticosterone-induced depression. To induce a chronic depression-like state, individually housed mice were administered corticosterone ([…]; Sigma-Aldrich) dissolved in 0.45% (wt/vol) hydroxypropyl-b-cyclodextrin (Sigma-Aldrich) as in (Bacq et al., Mol. Psychiatry, 2012, 17, 926-939). […] The mice were tested successively for coat sate, sucrose consumption, elevated O-maze, object location test and social interaction, before antidepressant treatment, and after 10 days and 3 weeks of treatment. The experimental scheme is represented on FIG. 1A.
Cell death pathways in the brain—Western blots. […] Samples were homogenized by sonication in 2 vol of ice-cold phosphate-buffered saline containing 1% Triton X-100, protease inhibitors (Complete Protease Inhibitor Cocktail, Roche Diagnostics, Basel, Switzerland) and phosphatase inhibitors (Phosphatase Inhibitor Cocktail 3; Sigma-Aldrich). Protein concentrations were determined by Bradford's method. Proteins samples (15 μg) suspended in NuPage LDS sample buffer (Invitrogen, Carlsbad, Calif., USA) were separated by Bis-Tris sodium dodecyl sulfate polyacrylamide gel electrophoresis (10% gels) and transferred onto nitrocellulose membranes (Invitrogen). Transfer efficacy was controlled by Ponceau S staining. Unspecific binding sites were blocked in Tris-buffered saline containing 0.1% Tween-20 and 5% nonfat milk and membranes were immunoprobed with antibodies against β-actin ( 1/2500) and β-catenin ( 1/300) from Sigma-Aldrich or LC3B ( 1/5000) from Abcam. Membranes were incubated with infrared-labeled secondary antibodies (IRDye 700DX and IRDye 800CW; 1/5000; Rockland, Gilbertsvillle, Pa., USA). Immunoblotting was quantified with the Odyssey Infrared Imaging System and Application Software version 3.0 (LI-COR Biosciences, Lincoln, Nebr., USA).
In general terms: In western blotting, separated proteins are transferred to a membrane and probed.

Data set [5] relates to corticosterone-induced depression model. In words: Sucrose preference test, corticosterone-induced depression. Type of data set: in vivo, mice. Conditions: i.p. daily: I-1 0.1 mg/kg/day, fluoxetine 15 mg/kg/day or both. As to the method: Corticosterone-induced depression. […] The experimental scheme is represented on FIG. 1A. Sucrose preference test. Singled-house mice were first habituated for 48 h to drink water from two bottles.

The conditions of data set [6]: blood after 3 weeks of treatment, corticosterone model; means ± SEM (n = 6). The protocol: as §1
Blood parameter evaluation. Blood was collected in lithium heparin after the 3 weeks of treatment. Hemograms were performed with a Siemens ADVIAZ 120 apparatus. For biochemistry, blood was centrifuged at 2000 g for 10 min at +4° C. and supernatant was analyzed with a COBAS 6000 (Roche) apparatus.

Data set [7] relates to corticosterone-induced depression model. In words: Social interaction test, corticosterone-induced depression. It counts as in vivo, mice. Conditions: compared to corticosterone. As to the method: (§2) Corticosterone-induced depression. […] The experimental scheme is represented on FIG. 1A. Social interaction test. The social interaction test was performed in a white open-field (42×42 cm) containing an empty wire mesh cage (10×6.5 cm) located at an extremity of the field in a low luminosity environment (25 lux). Each test mouse was allowed to explore the openfield for two consecutive sessions of 2.5 min. During the second session, an unfamiliar mouse was introduced into the cage. Between the two sessions, the test mouse was placed back into its home cage for approximately one minute. The time spent by the test mouse in the interaction zone, defined as an 8-cm-wide region surrounding the mesh cage, was measured in both sessions by video tracking (Viewpoint, Lyon, France) (FIGS. 1G and 1I).

Data set [8] has the same test system. In words: Open-field test, corticosterone-induced depression. It counts as in vivo, mice. Conditions: compared to corticosterone; I-1 0.1 mg/kg/day, fluoxetine 15 mg/kg/day or both, i.p. The protocol:
as §1
Open-field test. The open field consisted of a white Plexiglas field (100×100×30 cm) with the center brightly illuminated (500 lux). General locomotor activity in the center and periphery of the open field were scored for 9 min. The time and number of entries in the center zone (60×60 cm) were evaluated as an index of anxiety-related response (FIG. 2B).

For data set [9] the test system is unchanged. In words: Coat state, corticosterone-induced depression. It counts as in vivo, mice. Conditions: both time points; i.p. daily: I-1 0.1 mg/kg/day, fluoxetine 15 mg/kg/day or both. As to the method: Corticosterone-induced depression. […] The experimental scheme is represented on FIG. 1A. Coat state. The coat state of each animal was assessed weekly as a measure of motivation toward self-care. It was evaluated as the sum of the score of different parts of the body, ranging between 0 for a well-groomed coat and 1 for an unkempt coat for head, neck, dorsal/ventral coat, tail and forepaws/hindpaws (FIG. 1B).

The subject of a further data set is social defeat model. In words: Social defeat model, social interaction test. It counts as in vivo, mice. Conditions: after 3 weeks of treatment; fluoxetine 17 mg/kg, compound (I-1) 0.1 mg/kg as printed. As to the method: as §2, with “Social defeat model. For social defeat, 8-week-old C57Bl/6J mice were submitted to social defeat stress for 10 consecutive days as described (Berton et al., Science, 2006, 311(5762), 864-8).” for “Corticosterone-induced depression.”, “1H.” for “1A.”

Structures are written as SMILES. pKi: −log10 of the molar value.

For orientation: pKi means the negative decadic logarithm of the Ki, by convention in mol/L.

In the case of `CC(C)N1/C(=C\c2cc[n+](C(C)C)c3ccccc23)C=Cc2ccccc21` [Compound D24, disprocynium 24], the pKi at OCT3 was 7.85. Moreover, the “inhibition of α2-adrenoreceptors” value in the data set with α2-adrenoreceptors is “inhibits”. The “hypotensive effects (blood pressure)” value in [1] was “decreasing blood pressure markedly”. Moreover, the “inhibition of α1-adrenoreceptors” value in the data set with α1-adrenoreceptors is listed as “inhibits”.
As to `CNCCC(Oc1ccc(C(F)(F)F)cc1)c1ccccc1` (stereo not shown) [fluoxetine, reference compound], the effect on weight entry in [2] was “no significant effect”. For the same compound, in data set [3], the “latency to enter the open zone of the elevated O-maze” value is on record as “decreased the latency to enter this zone” and the “time in the open zone of the elevated O-maze” value is “increased the time in the open zone”. Further, in [4], the LC3II/LC3I ratios result was “comparable LC3II/LC3I ratios” and the β-catenin levels entry is recorded as “comparable”. Besides, the sucrose preference result in data set [5] (11 days of treatment) was “but not fluoxetine alone, significantly increased sucrose preference at 11 days”. For the same compound, in data set [5] (21 days of treatment), the sucrose preference result is “significantly increased sucrose preference at 21 days”. In [6], this compound came in with an ALP of 47.4 ± 6.2 U/L, an ALT of 75.1 ± 12.4 U/L, an AST of 584.2 ± 87.6 U/L and a Creatinine of 0.5 ± 0.04 mg/dL. For the same compound, in [6], the Hematies came out at 8.5 ± 0.3 T/L, the Leucocytes was 2.99 ± 0.08 g/L, the Platelets worked out at 357 ± 57.2 and the Total bilirubin was 0.12 ± 0.01 mg/dL. In [6], this compound had a Urea of 64.2 ± 4.1 mg/dL. In addition, the “interaction time in social interaction test” value in [7] (11 days of treatment) was “significant effects on interaction time”. Also, the “interaction time in social interaction test” value in [7] (21 days of treatment) was “significant effects on interaction time”. The “locomotor activity at the periphery of the open field” value in data set [8] is listed as “significant effect”. For the same compound, the coat state result in data set [9] is given as “improved coat state at both time points”. In the data set on social defeat model, the “reversal of social aversion (time in interaction zone with target)” value is given as “reversed only by fluoxetine”.

The values are drawn from patent publication US11414398B2, “Selective organic cation transporters inhibitors for the treatment of depressive disorders” (priority 2017, dated 2022).
